Test results published in patent publication US20060052365A1, “Protease inhibitors” (priority 2002, published 2006).

| melting point | SMILES |
| --- | --- |
| 97 to 100 °C | O=C(N[C@@H](CC1CCCC1)C(=O)NC1CCCN(C(=O)c2ccccc2)CC1=O)c1ccco1 (stereo partly drawn) [Example 72, Furan-2-carboxylic acid {(S)-2-cyclopentyl-1-[3-oxo-1-(1-phenyl-methanoyl)-azepan-4-ylcarbamoyl]-ethyl}-amide] |
| 88 to 89 °C | O=C(N[C@@H](CC1CCCC1)C(=O)NC1CCCN(C(=O)c2ccco2)CC1=O)c1ccco1 (stereo partly drawn) [Example 69, Furan-2-carboxylic acid {(S)-2-cyclopentyl-1-[1-(1-furan-2-yl-methanoyl)-3-oxo-azepan-4-ylcarbamoyl]-ethyl}-amide] |
| 72 to 74 °C | O=C(N[C@@H](CC1CCCC1)C(=O)NC1CCCN(C(=O)OCc2ccccc2)CC1=O)c1ccco1 (stereo partly drawn) [Example 61, 4-{(S)-3-Cyclopentyl-2-[(1-furan-2-yl-methanoyl)-amino]-propanoylamino}-3-oxo-azepane-1-carboxylic acid benzyl ester] |
| 66 to 68 °C | O=C(N[C@@H](CC1CCCC1)C(=O)NC1CCCN(C(=O)OCc2ccccc2)CC1=O)c1ccco1 (stereo partly drawn) [Example 62, 4-{(S)-3-Cyclopentyl-2-[(1-furan-2-yl-methanoyl)-amino]-propanoylamino)-3-oxo-azepane-1-carboxylic acid benzyl ester] |
| 85 to 88 °C | O=C(N[C@@H](CC1CCCC1)C(=O)NC1CCCN(C(=O)c2ccco2)CC1=O)c1ccco1 (stereo partly drawn) [Example 70, Furan-2-carboxylic acid {(S)-2-cyclopentyl-1-[1-(1-furan-2-yl-methanoyl)-3-oxo-azepan-4-ylcarbamoyl]-ethyl}-amide] |
| 81 to 84 °C | O=C(N[C@@H](CC1CCCC1)C(=O)NC1CCCN(S(=O)(=O)c2ccccn2)CC1=O)c1ccco1 (stereo partly drawn) [Example 63, Furan-2-carboxylic acid {(S)-2-cyclopentyl-1-[3-oxo-1-(pyridine-2-sulfonyl)-azepan-4-ylcarbamoyl]ethyl}-amide] |
| 158 to 161 °C | CS(=O)(=O)N1CCCC(NC(=O)[C@H](CC2CCCC2)NC(=O)c2ccco2)C(=O)C1 (stereo partly drawn) [Example 66, Furan-2-carboxylic acid [(S)-2-cyclopentyl-1-(1-methanesulfonyl-3-oxo-azepan-4-ylcarbamoyl)-ethyl]-amide] |
| 88 to 90 °C | O=C(N[C@@H](CC1CCCC1)C(=O)NC1CCCN(S(=O)(=O)c2ccccc2)CC1=O)c1ccco1 (stereo partly drawn) [Example 67, Furan-2-carboxylic acid [(S)-1-(1-benzenesulfonyl-3-oxo-azepan-4 ylcarbamoyl)-2-cyclopentyl-ethyl]-amide] |
| 101 to 103 °C | O=C(N[C@@H](CC1CCCC1)C(=O)NC1CCCN(C(=O)c2ccccc2)CC1=O)c1ccco1 (stereo partly drawn) [Example 71, Furan-2-carboxylic acid {(S)-2-cyclopentyl-1-[3-oxo-1-(1-phenyl-methanoyl)-azepan-4-ylcarbamoyl]-ethyl}-amide] |
| 77 to 80 °C | O=C(N[C@@H](CC1CCCC1)C(=O)NC1CCCN(S(=O)(=O)c2ccccn2)CC1=O)c1ccco1 (stereo partly drawn) [Example 64, Furan-2-carboxylic acid {(S)-2-cyclopentyl-1-[3-oxo-1-(pyridine-2-sulfonyl)-azepan-4-ylcarbamoyl]ethyl}-amide] |
| 166 to 167 °C | O=C(N[C@@H](CC1CCCC1)C(=O)NC1CCCN(S(=O)(=O)c2ccccc2)CC1=O)c1ccco1 (stereo partly drawn) [Example 68, Furan-2-carboxylic acid [(S)-1-(1-benzenesulfonyl-3-oxo-azepan-4-ylcarbamoyl)-2-cyclopentyl-ethyl]-amide] |
| 167 to 170 °C | CS(=O)(=O)N1CCCC(NC(=O)[C@H](CC2CCCC2)NC(=O)c2ccco2)C(=O)C1 (stereo partly drawn) [Example 65, Furan-2-carboxylic acid [(S)-2-cyclopentyl-1-(1-methanesulfonyl-3-oxo-azepan-4ylcarbamoyl)-ethyl]-amide] |
